Results reported in patent US9566240B2, “Compositions for multiphase, staggered, or sustained release of an active substance” (CLABBER GIRL CORPORATION, priority 2014, dated 2017).

Experiments:
[1] = system: composited rumen contents; assay: In vitro ruminal incubation: volatile fatty acid production
Method: Each of the products was tested using in vitro ruminal incubation to determine the product's influence on ruminal pH, volatile fatty acid production in relation to changes in ruminal pH, and the associative effects of ruminal pH and volatile fatty acid on dry matter disappearance, starch disappearance, and neutral detergent fiber disappearance. Incubation solution containing water, composited rumen contents, and Van Soest buffer was placed in 1 L-incubation vessels (1 L oval deli cup with lid and Bunsen valve). Simulated feeding bags were obtained by placing 3 g of ground (Wiley Mill, 8 mm screen) total meal rations (10% alfalfa hay, 35% corn silage, 50% corn grain, and 5% vitamin/minerals) into 5 cm×10 cm bags with a pore size of 40 microns. Product 1 was added to each of eight replicate feeding bags in an amount at 0.2273 g/L. Product 2 was added to another set of eight replicate bags in an amount of 0.3704 g/L. Product 3 was added to another set of eight replicate bags in an amount of 0.5710 g/L. Control was added to another set of eight replicate bags in an amount of 0.1 g/L. A fifth set of eight replicate bags contained just the 3g of ground total meal rations to serve as a “Blank” control. To simulate twice-a-day-feeding, four replicates from each set of replicates were added to the incubation vessels at zero hours (0 H), and four more were added at twelve hours (12 H). The incubation vessels were placed into a temperature controlled, air jacketed, anaerobic incubator (39° C., and 20% carbon dioxide) for the duration of their assigned incubation time. Ruminal pH was measured during each incubation time. At zero hours and twelve hours, pH was also recorded before and after the simulated feeding. […] Dry matter disappearance, starch disappearance, and neutral detergent fiber disappearance were measured by removing replicate bags at the same hours the volatile fatty acid aliquots were taken, drying them in a forced-air oven at 60° C. to a constant weight, and storing them for future analysis. […] The first feeding was monitored for 12 hours (2, 6, and 12). Then the second feeding was monitored at 14 and 18 hours which corresponded to the 2 and 6 hours post-feeding.

[2] = system: composited rumen contents; assay: In vitro ruminal incubation: ruminal pH; settings: over a 24 hour feeding cycle
Method: Each of the products was tested using in vitro ruminal incubation to determine the product's influence on ruminal pH, volatile fatty acid production in relation to changes in ruminal pH, and the associative effects of ruminal pH and volatile fatty acid on dry matter disappearance, starch disappearance, and neutral detergent fiber disappearance. Incubation solution containing water, composited rumen contents, and Van Soest buffer was placed in 1 L-incubation vessels (1 L oval deli cup with lid and Bunsen valve). Simulated feeding bags were obtained by placing 3 g of ground (Wiley Mill, 8 mm screen) total meal rations (10% alfalfa hay, 35% corn silage, 50% corn grain, and 5% vitamin/minerals) into 5 cm×10 cm bags with a pore size of 40 microns. […] Ruminal pH was measured during each incubation time. At zero hours and twelve hours, pH was also recorded before and after the simulated feeding. […] Dry matter disappearance, starch disappearance, and neutral detergent fiber disappearance were measured by removing replicate bags at the same hours the volatile fatty acid aliquots were taken, drying them in a forced-air oven at 60° C. to a constant weight, and storing them for future analysis.

[3] = system: composited rumen contents; assay: In vitro ruminal incubation: dry matter, starch and neutral detergent fiber disappearance
Method: Each of the products was tested using in vitro ruminal incubation to determine the product's influence on ruminal pH, volatile fatty acid production in relation to changes in ruminal pH, and the associative effects of ruminal pH and volatile fatty acid on dry matter disappearance, starch disappearance, and neutral detergent fiber disappearance.
Incubation solution containing water, composited rumen contents, and Van Soest buffer was placed in 1 L-incubation vessels (1 L oval deli cup with lid and Bunsen valve). Simulated feeding bags were obtained by placing 3 g of ground (Wiley Mill, 8 mm screen) total meal rations (10% alfalfa hay, 35% corn silage, 50% corn grain, and 5% vitamin/minerals) into 5 cm×10 cm bags with a pore size of 40 microns. Product 1 was added to each of eight replicate feeding bags in an amount at 0.2273 g/L. Product 2 was added to another set of eight replicate bags in an amount of 0.3704 g/L. Product 3 was added to another set of eight replicate bags in an amount of 0.5710 g/L. Control was added to another set of eight replicate bags in an amount of 0.1 g/L. A fifth set of eight replicate bags contained just the 3g of ground total meal rations to serve as a “Blank” control.
To simulate twice-a-day-feeding, four replicates from each set of replicates were added to the incubation vessels at zero hours (0 H), and four more were added at twelve hours (12 H). The incubation vessels were placed into a temperature controlled, air jacketed, anaerobic incubator (39° C., and 20% carbon dioxide) for the duration of their assigned incubation time.
Ruminal pH was measured during each incubation time. At zero hours and twelve hours, pH was also recorded before and after the simulated feeding. Volatile fatty acid production was measured by taking 50 ml aliquots of the supernatant of each incubation vessel at 0, 2, 6, 12, 14, 18, and 24 hours, acidifying the aliquot with 5 ml of 50% HCl, and freezing it for future analysis. Dry matter disappearance, starch disappearance, and neutral detergent fiber disappearance were measured by removing replicate bags at the same hours the volatile fatty acid aliquots were taken, drying them in a forced-air oven at 60° C. to a constant weight, and storing them for future analysis.
Dry matter, starch, and neutral detergent fiber concentrations were measured at 2, 4, 6, 10, 12, 16, 18, and 22 hours of incubation. The measurements for starch disappearance and neutral detergent fiber disappearance were made at 2, 6, 16, and 22 hours of incubation. The early times were selected to monitor the faster degradation of starch, and the later times to monitor the slower degradation of neutral detergent fiber. […]

[4] = in vitro incubation, at the two peaks of 2 and 14 hours
[5] = in vitro incubation, overall values at 18 hours

O=C([O-])O.[Na+] [Control, sodium bicarbonate]
total volatile fatty acids concentration ([1]; at 18 H, after the second feeding (12 H), FIG. 4): higher concentration at 18 H compared to that of Product 2
ratio of even- to odd-numbered carbon chain VFAs, overall assessment ([1]; from Table 3, high total VFA plus high propionic acid without decrease in acetic acid): superior to the other treatments
A:P Peaks (acetic acid to propionic acid ratio at peak concentrations) [1, 4]: 8.30
AB:P Peaks (sum of acetic and butyric acid to propionic acid ratio at peak concentrations) [1, 4]: 9.39
A:P (acetic acid to propionic acid ratio) [1, 5]: 11.61
AB:P (sum of acetic acid and butyric acid to propionic acid ratio) [1, 5]: 12.50
buffering of rumen pH [2]: only a “flash” neutralization that was soon dissipated
dry matter disappearance ([3]; first 11 hours of the feeding cycle): little dry matter disappearance
dry matter disappearance ([3]; in vitro incubations, FIG. 8): best results
starch disappearance ([3]; in vitro incubations, FIG. 9): best results
neutral detergent fiber disappearance ([3]; in vitro incubations, FIG. 10): higher neutral detergent fiber disappearance over Products 1, 2, and 3, and Blank
